Results reported in patent US11472807B2, “Purine derivatives for use as medicament and for use in treating neurodegenerative or neuro-inflammatory disorders” (COMMISSARIAT À L'ENERGIE ATOMIQUE ET AUX ENERGIES …, priority 2017, dated 2022).

What was measured:
IL-10 = IL-10 mRNA in OHSC (RT-qPCR); assay type: cell-based, mice; settings: 50 μM, 10 days
Procedure: FIG. 10. Plots illustrating the effect of Aftin-5 on relative mRNA expression levels of interleukin-1-beta (IL-1β; (A)), interleukin-6 (IL-6; (B)), TNF-alpha (TNFα; (C)) and interleukin-10 (IL-10; (D)) in organotypic hippocampal slice cultures (OHSC). OHSC culture media […] were replaced by incubation medium containing Aftin-5 (50 μM; A50) or vehicle (0.1% DMSO; Veh). 10 days later, total mRNA in lysate was isolated and purified, cDNAs were then synthesized from […] of total mRNA. cDNAs were amplified by quantitative RT-PCR and the relative expression of specific genes was normalized to the housekeeping gene HPRT1 (2^−ΔCt). Mann-Whitney tests were performed and ***p<0.001 indicates significant differences between Aftin-5 and control conditions. Data expressed as means+/−SEM from q=3 independent experiments with n=4-6 inserts/condition and 10 slices/insert. […]
The impact of Aftin-5 on gene expression of different biomarkers was determined by measuring mRNA levels of selected BDNF, CREB, PS95, INS Receptor/IGF-1 receptor, IL-1β, IL-6 in OHSC treated chronically with Aftin-5 or in a total brain from mice exposed to Aftin-5 at either 8 or 30 mg/Kg. […] Threshold cycles (Ct) of target gene and cyclophilin A (Ppia−control housekeeping gene) were recorded and gene expression was calculated as 2^−ΔΔCt(ΔΔCt=ΔCttreated−ΔCtcontrol, ΔCt=Cttarget−CtPpia). […]

[1] = test system: amyloid precursor protein (APP); test: APP protein expression in neuronal primary cultures (Western blot); assay type: cell-based; settings: hippocampal neurons, 100 μM, 18 h
Procedure: FIG. 8. Plots illustrating the effect of Aftin-5 on APP protein expression in neuronal primary cultures. Culture medium of hippocampal neurons was replaced by incubation medium containing Aftin-5 (100 μM) or vehicle (0.1% DMSO). 18 h later, APP protein in lysate was quantified by Western blotting with anti-APP polyclonal antibody (Millipore). The Western blots were quantified by densitometric analysis. Relative APP protein expression was expressed (Aftin-5) as comparison with the control condition (vehicle; Ctrl). Data expressed as means+/−SEM from one experiment with n=5 wells/condition.
Hippocampi and cortex were dissected in HBSS containing 5 mM glucose (dissection medium). […] Cells were counted and seeded at a density of 22,000 per cm^2 for hippocampal neurons and 10^5 per cm^2 for cortical neurons into 24 wells culture plates (Costar) in plating medium (DMEM medium containing 10% heat-inactivated horse serum (Life Technologies)). […]
Cells were lysed in freshly prepared lysis buffer containing in mM: Tris-HCl 50, EDTA 2, EGTA 2, NaCl 100, SDS 0.2%, Triton X-100 1%, proteases inhibitors (Roche Protease Inhibitor Cocktail #04693116001), phosphatases inhibitors (in mM: ammonium molybdate 0.1, β-glycerophosphate 20, NaF 50, Na-pyrophosphate 10, Orthovanadate 1). Protein concentration was measured by the Bradford assay and Laemmli buffer was added to each lysate. […]

Compound: CC[C@H](CO)Nc1nc(N(C)c2ccccc2)c2ncn(C(C)C)c2n1 [Aftin-5]
- IL-10 mRNA synthesis (IL-10): no changes
- level of APP [1]: does not change
